Results from PubChem BioAssay AID264 (DTP/NCI, 2004).
Where “and” joins values, the source holds several entries; their conditions need not be identical. Equal values may be shown once. Records with an inconclusive call do not appear.

System: nude mice, LX-1 lung xenograft intrarenal, tumor weight T/C
Assay: NCI In Vivo Anticancer Drug Screen. Data for tumor model Human Lung LX-1 Xenograft (intrarenal inoculation) in NU/NU Swiss (nude) mice
Conditions: endpoint: mean tumor weight change, higher = larger tumour
Summary of the method: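 Antitumor effect is expressed as a ratio: the mean tumor measurement of the drug-treated group relative to that of the vehicle-dosed control group.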

[1] = dose: 200.0 mg/kg/injection, schedule: Q04DX003 (sc), vehicle: Klucel (hydroxypropylcellulose) (HPC)
[2] = dose: 400.0 mg/kg/injection, schedule: Q04DX003 (sc), vehicle: Klucel (hydroxypropylcellulose) (HPC)
[3] = dose: 800.0 mg/kg/injection, schedule: Q04DX003 (sc), vehicle: Klucel (hydroxypropylcellulose) (HPC)
[4] = dose: 50.0 mg/kg/injection, schedule: Q01DX010 (sc), vehicle: Klucel (hydroxypropylcellulose) (HPC)
[5] = dose: 100.0 mg/kg/injection, schedule: Q01DX010 (sc), vehicle: Klucel (hydroxypropylcellulose) (HPC)
[6] = dose: 200.0 mg/kg/injection, schedule: Q01DX010 (sc), vehicle: Klucel (hydroxypropylcellulose) (HPC)
[7] = dose: 400.0 mg/kg/injection, schedule: Q01DX010 (sc), vehicle: Klucel (hydroxypropylcellulose) (HPC)
[8] = dose: 300.0 mg/kg/injection, schedule: Q04DX003 (sc), vehicle: Klucel (hydroxypropylcellulose) (HPC)
[9] = dose: 600.0 mg/kg/injection, schedule: Q04DX003 (sc), vehicle: Klucel (hydroxypropylcellulose) (HPC)
[10] = dose: 1200.0 mg/kg/injection, schedule: Q04DX003 (sc), vehicle: Klucel (hydroxypropylcellulose) (HPC)
[11] = dose: 50.0 mg/kg/injection, schedule: Q04DX003 (sc), vehicle: Klucel (hydroxypropylcellulose) (HPC)

Structure (SMILES): CC1OC1C(=O)C1(O)C(C)C(O)C23OC2(C(O)c2c(O)cccc2C3=O)C1O (centres undefined)
- T/C (dose: 6.0 mg/kg/injection, schedule: Q04DX003 (sc), vehicle: Klucel (hydroxypropylcellulose) (HPC)): 83 % of control
- T/C (dose: 12.0 mg/kg/injection, schedule: Q04DX003 (sc), vehicle: Klucel (hydroxypropylcellulose) (HPC)): 98 % of control
- T/C (dose: 24.0 mg/kg/injection, schedule: Q04DX003 (sc), vehicle: Klucel (hydroxypropylcellulose) (HPC)): 110 % of control
- T/C (dose: 48.0 mg/kg/injection, schedule: Q04DX003 (sc), vehicle: Klucel (hydroxypropylcellulose) (HPC)): 41 % of control

Structure (SMILES): O=[N+]([O-])O.[Ga]
- T/C (dose: 100.0 mg/kg/injection, schedule: Q04DX003 (sc), vehicle: saline): 92 % of control
- T/C (dose: 200.0 mg/kg/injection, schedule: Q04DX003 (sc), vehicle: saline): 86 % of control
- T/C (dose: 400.0 mg/kg/injection, schedule: Q04DX003 (sc), vehicle: saline): 86 % of control
- T/C (dose: 800.0 mg/kg/injection, schedule: Q04DX003 (sc), vehicle: saline): 83 % of control

Structure (SMILES): COC1/C=C\C=C(/C)C(=O)NC2=CC(=O)C=C(C2=O)C(OC)C(C)CC(OC)C(OC)C(C)/C=C(/C)C1OC(N)=O (centres undefined)
- T/C (dose: 4.5 mg/kg/injection, schedule: Q04DX003 (sc), vehicle: Klucel (hydroxypropylcellulose) (HPC)): 82 % of control

Structure (SMILES): O=c1[nH]c(=O)n(C2CC(O)C(CO)O2)cc1F (centres undefined)
- T/C (dose: 50.0 mg/kg/injection, schedule: Q01DX010 (sc), vehicle: water): 77 % of control
- T/C (dose: 100.0 mg/kg/injection, schedule: Q01DX010 (sc), vehicle: water): 39 % of control

Structure (SMILES): CCCCCCCCSC1=C(Cl)C(=O)C(OC)=C(OC)C1=O
- T/C (dose: 18.0 mg/kg/injection, schedule: Q04DX003 (sc), vehicle: saline with Tween-80): 82 % of control
- T/C (dose: 36.0 mg/kg/injection, schedule: Q04DX003 (sc), vehicle: saline with Tween-80): 81 % of control
- T/C (dose: 144.0 mg/kg/injection, schedule: Q04DX003 (sc), vehicle: saline with Tween-80): 57 % of control

Structure (SMILES): C[C@H]1C[C@@H]2[C@H]([C@@H](O)C[C@@]3(C)[C@H]2CC[C@]3(O)C(=O)CO)[C@@]2(C)C=CC(=O)C=C12
- T/C [1]: 76 % of control
- T/C [2]: 58 % of control
- T/C [3]: 59 % of control

Structure (SMILES): Cc1cc(N(CCOS(C)(=O)=O)CCOS(C)(=O)=O)ccc1C=Nc1ccc(-c2nc(Cc3ccccc3)sc2C)cc1
- T/C [4]: 12 % of control and 26 % of control
- T/C [5]: 5 % of control (2×) and 11 % of control
- T/C [6]: 1 % of control
- T/C [7]: 1 % of control

Structure (SMILES): CCN(CC)CCCC(C)Nc1c2ccc(Cl)cc2nc2ccc(OC)cc12 (centres undefined)
- T/C (dose: 12.5 mg/kg/injection, schedule: Q01DX010 (sc), vehicle: saline with Tween-80): 98 % of control
- T/C (dose: 25.0 mg/kg/injection, schedule: Q01DX010 (sc), vehicle: saline with Tween-80): 102 % of control and 108 % of control
- T/C (dose: 150.0 mg/kg/injection, schedule: Q04DX003 (sc), vehicle: saline with Tween-80): 75 % of control
- T/C (dose: 300.0 mg/kg/injection, schedule: Q04DX003 (sc), vehicle: saline with Tween-80): 41 % of control

Structure (SMILES): N=[N+]=CC(=O)CCC(NC(=O)C(CCC(=O)C=[N+]=N)NC(=O)CCC(N)C(=O)O)C(=O)O (centres undefined)
- T/C (dose: 1.6 mg/kg/injection, schedule: Q04DX003 (sc), vehicle: water): 119 % of control
- T/C (dose: 3.2 mg/kg/injection, schedule: Q04DX003 (sc), vehicle: water): 86 % of control
- T/C (dose: 6.4 mg/kg/injection, schedule: Q04DX003 (sc), vehicle: water): 119 % of control
- T/C (dose: 12.8 mg/kg/injection, schedule: Q04DX003 (sc), vehicle: water): 91 % of control

Structure (SMILES): COc1cccc2c1C(=N)c1c(O)c3c(c(O)c1C2=O)C[C@@](O)(C(C)=O)C[C@@H]3OC1CC(N)C(O)C(C)O1 (some centres undefined)
- T/C (dose: 24.0 mg/kg/injection, schedule: Q04DX003 (sc), vehicle: water): 46 % of control
- T/C (dose: 48.0 mg/kg/injection, schedule: Q04DX003 (sc), vehicle: water): 10 % of control
- T/C (dose: 96.0 mg/kg/injection, schedule: Q04DX003 (sc), vehicle: water): 23 % of control

Structure (SMILES): CCCCCC1c2cc(O)ccc2OC1N1CCOCC1 (centres undefined)
- T/C (dose: 600.0 mg/kg/injection, schedule: Q04DX003 (sc), vehicle: saline with Tween-80): 150 % of control
- T/C (dose: 1200.0 mg/kg/injection, schedule: Q04DX003 (sc), vehicle: saline with Tween-80): 52 % of control
- T/C (dose: 2400.0 mg/kg/injection, schedule: Q04DX003 (sc), vehicle: saline with Tween-80): 89 % of control

Structure (SMILES): COc1cc2c(c(OC)c1OC)-c1ccc(OC)c(=O)cc1[C@@H](NC(C)=O)CC2
- T/C (dose: 0.25 mg/kg/injection, schedule: Q01DX010 (sc), vehicle: saline): 87 % of control
- T/C (dose: 0.5 mg/kg/injection, schedule: Q01DX010 (sc), vehicle: saline): 50 % of control

Structure (SMILES): CC[C@](C)(O)C(=O)O[C@H]1C(=O)O[C@@H]2C[C@H]3C(C)=CC(=O)[C@@H](O)[C@]3(C)[C@H]3[C@@]4(O)OC[C@]32[C@@H]1[C@@H](C)[C@H]4O
- T/C (dose: 0.25 mg/kg/injection, schedule: Q01DX010 (sc), vehicle: Klucel (hydroxypropylcellulose) (HPC)): 48 % of control
- T/C (dose: 0.5 mg/kg/injection, schedule: Q01DX010 (sc), vehicle: Klucel (hydroxypropylcellulose) (HPC)): 71 % of control and 92 % of control
- T/C (dose: 1.0 mg/kg/injection, schedule: Q01DX010 (sc), vehicle: Klucel (hydroxypropylcellulose) (HPC)): 70 % of control and 75 % of control
- T/C (dose: 2.0 mg/kg/injection, schedule: Q01DX010 (sc), vehicle: Klucel (hydroxypropylcellulose) (HPC)): 43 % of control and 45 % of control

Structure (SMILES): Cc1ccc(NCC2(/N=C/c3ccccc3)OC(CO)C(O)C2O)cc1 (centres undefined)
- T/C [8]: 122 % of control
- T/C [9]: 98 % of control
- T/C [10]: 80 % of control
- T/C (dose: 2400.0 mg/kg/injection, schedule: Q04DX003 (sc), vehicle: Klucel (hydroxypropylcellulose) (HPC)): 98 % of control

Structure (SMILES): CN(C)N=Nc1cccc(C(N)=O)c1
- T/C (dose: 25.0 mg/kg/injection, schedule: Q04DX003 (sc), vehicle: Klucel (hydroxypropylcellulose) (HPC)): 72 % of control
- T/C [11]: 47 % of control
- T/C (dose: 100.0 mg/kg/injection, schedule: Q04DX003 (sc), vehicle: Klucel (hydroxypropylcellulose) (HPC)): 7 % of control and 15 % of control
- T/C [1]: 4 % of control and 29 % of control
- T/C [2]: -61 % of control

Structure (SMILES): CNC(=O)OCc1c(COC(=O)NC)c(C)n(-c2ccc(OC)cc2)c1C
- T/C (dose: 25.0 mg/kg/injection, schedule: Q01DX010 (sc), vehicle: Klucel (hydroxypropylcellulose) (HPC)): 51 % of control
- T/C [4]: 59 % of control and 63 % of control
- T/C [11]: 38 % of control
- T/C [3]: 87 % of control

Structure (SMILES): Cc1cc(NCCN(C(C)C)C(C)C)nc(/N=C(\N)Nc2ccc(Cl)c(C(F)(F)F)c2)n1
- T/C (dose: 40.0 mg/kg/injection, schedule: Q04DX003 (sc), vehicle: Klucel (hydroxypropylcellulose) (HPC)): 45 % of control
- T/C (dose: 80.0 mg/kg/injection, schedule: Q04DX003 (sc), vehicle: Klucel (hydroxypropylcellulose) (HPC)): 60 % of control
- T/C (dose: 160.0 mg/kg/injection, schedule: Q04DX003 (sc), vehicle: Klucel (hydroxypropylcellulose) (HPC)): 46 % of control
- T/C (dose: 320.0 mg/kg/injection, schedule: Q04DX003 (sc), vehicle: Klucel (hydroxypropylcellulose) (HPC)): 62 % of control

Structure (SMILES): CC[C@](O)(C(=O)O)c1cc2n(c(=O)c1CO)Cc1cc3ccccc3nc1-2
- T/C (dose: 16.0 mg/kg/injection, schedule: Q04DX003 (sc), vehicle: saline): -5 % of control
- T/C (dose: 31.25 mg/kg/injection, schedule: Q04DX003 (sc), vehicle: saline): 25 % of control
- T/C (dose: 62.5 mg/kg/injection, schedule: Q04DX003 (sc), vehicle: saline): 1 % of control
- T/C (dose: 125.0 mg/kg/injection, schedule: Q04DX003 (sc), vehicle: saline): -48 % of control

Structure (SMILES): COc1c(CNC(=O)CCl)cc2[nH]c(C)cc2c1CNC(=O)CCl
- T/C [5]: 76 % of control
- T/C [6]: 52 % of control
- T/C [8]: 91 % of control
- T/C [7]: 37 % of control
- T/C [9]: 90 % of control
- T/C [10]: 68 % of control

Structure (SMILES): O=NN(CCCl)C(=O)NC1CCC(=O)NC1=O (centres undefined)
- T/C (dose: 1.56 mg/kg/injection, schedule: Q01DX010 (ip), vehicle: saline with Tween-80): 29 % of control
- T/C (dose: 3.13 mg/kg/injection, schedule: Q01DX010 (ip), vehicle: saline with Tween-80): 3 % of control
- T/C (dose: 3.13 mg/kg/injection, schedule: Q01DX010 (sc), vehicle: saline with Tween-80): 10 % of control
- T/C (dose: 5.2 mg/kg/injection, schedule: Q04DX003 (ip), vehicle: saline with Tween-80): 5 % of control
- T/C (dose: 6.25 mg/kg/injection, schedule: Q01DX010 (ip), vehicle: saline with Tween-80): -74 % of control
- T/C (dose: 10.4 mg/kg/injection, schedule: Q04DX003 (ip), vehicle: saline with Tween-80): -94 % of control
